In PMC5474674, “D-BMAP18 Antimicrobial Peptide Is Active In vitro, Resists to Pulmonary Proteases but Loses Its Activity in a Murine Model of Pseudomonas aeruginosa Lung Infection” (Frontiers in Chemistry, 2017):
In brackets after ≈: the same amount, converted by molar mass. Where a SMILES comes first, the peptide text is derived from it. [ ]: non-standard residue; d: D form.

How the values were obtained:
S. aureus SA2 = conditions: D-BMAP18; strain SA2; broth microdilution, MH broth, 37°C 24 h; n = 6
S. aureus SA1 = conditions: D-BMAP18; strain SA1; broth microdilution, MH broth, 37°C 24 h; n = 6
S. maltophilia SM110 = assay: MIC/MBC broth microdilution; assay type: cell-based, Stenotrophomonas maltophilia; conditions: D-BMAP18, strain SM110, n = 6
Procedure: (§1) MIC values were determined using the broth microdilution method.

S. maltophilia SM105 = assay: MIC/MBC broth microdilution; assay type: cell-based, Stenotrophomonas maltophilia; conditions: D-BMAP18, strain SM105, n = 6
Procedure: as §1

S. maltophilia SM136 = assay: MIC/MBC broth microdilution; assay type: cell-based, Stenotrophomonas maltophilia; conditions: D-BMAP18, strain SM136, n = 6
Procedure: as §1

S. maltophilia SM103 = assay: MIC/MBC broth microdilution; assay type: cell-based, Stenotrophomonas maltophilia; conditions: D-BMAP18, strain SM103, n = 6
Procedure: as §1

S. maltophilia SM130 = assay: MIC/MBC broth microdilution; assay type: cell-based, Stenotrophomonas maltophilia; conditions: D-BMAP18, strain SM130, n = 6
Procedure: as §1

S. maltophilia SM106 = assay: MIC/MBC broth microdilution; assay type: cell-based, Stenotrophomonas maltophilia; conditions: D-BMAP18, strain SM106, n = 6
Procedure: as §1

S. maltophilia SM126 = assay: MIC/MBC broth microdilution; assay type: cell-based, Stenotrophomonas maltophilia; conditions: D-BMAP18, strain SM126, n = 6
Procedure: as §1

S. maltophilia SM123 = assay: MIC/MBC broth microdilution; assay type: cell-based, Stenotrophomonas maltophilia; conditions: D-BMAP18, strain SM123, n = 6
Procedure: as §1

S. maltophilia SM139 = assay: MIC/MBC broth microdilution; assay type: cell-based, Stenotrophomonas maltophilia; conditions: D-BMAP18, strain SM139, n = 6
Procedure: as §1

S. maltophilia SM122 = assay: MIC/MBC broth microdilution; assay type: cell-based, Stenotrophomonas maltophilia; conditions: D-BMAP18, strain SM122, n = 6
Procedure: as §1

S. maltophilia SM120 = assay: MIC/MBC broth microdilution; assay type: cell-based, Stenotrophomonas maltophilia; conditions: D-BMAP18, strain SM120, n = 6
Procedure: as §1

S. maltophilia SM143 = assay: MIC/MBC broth microdilution; assay type: cell-based, Stenotrophomonas maltophilia; conditions: D-BMAP18, strain SM143, n = 6
Procedure: as §1

S. maltophilia = assay type: cell-based, Stenotrophomonas maltophilia; conditions: 24 h
Procedure: P. aeruginosa, S. maltophilia, and Staphylococcus aureus strains were originally isolated from respiratory specimens of CF patients admitted to the “Bambino Gesù” Children Hospital in Rome and previously tested with AMPs (Pompilio et al., [2012]). P. aeruginosa RP73, and PAO1 were tested as reference strains.
as §1

C57BL/6NCrl mice = assay: In vivo acute toxicity, intratracheal; parameters: species or system mouse
Procedure: In vivo acute toxicity of D-BMAP18 was evaluated in C57BL/6NCrl mice (n = 5/group) (male; 22 g; 6 ± 2 week-old) obtained from Charles River Laboratories Italia S.r.l. (Calco, Milan, Italy). Mice were intra-tracheally challenged with increasing doses (1, 2, 4, and 8 mg/kg) of D-BMAP18 prepared in sterile distilled water. Control mice received vehicle only (sterile distilled water). General health and animal behavior (ruffled coats, huddled position, lack of retreat in handler's presence), weight loss, and survival were monitored daily over a 5-day period, comparatively to control mice. […] Subsequently, lungs were removed en bloc from the chest via sterile excision and immediately weighed. These experiments were carried out in accordance with the recommendations of the Guide for the Care and Use of Laboratory Animals of the National Institute of Health and in accordance with the ethical standards of the Animal Care Committee of the “G. d'Annunzio” University of Chieti-Pescara. The protocol was approved by the Animal Care Committee of the “G. d'Annunzio” University of Chieti-Pescara.

P. aeruginosa RP73 = assay type: in vivo, mouse; conditions: mouse, in vivo
Procedure: C57/Bl6NCrl mice (n = 8/group) were intratracheally challenged with 1 × 10^7 cells P. aeruginosa RP73 clinical strain, and 5 min later a single dose of D-BMAP18 at different concentrations (0.5, 1, and 2 mg/kg) was intratracheally administrated. Sterile distilled water alone or tobramycin [10 mg/kg] (Sigma-Aldrich S.r.l.), were used respectively as negative and positive control. […] Subsequently, lungs were homogenized (24,000 rpm) on ice in 1 ml of sterile PBS by using Ultra-Turrax T25-Basic homogenizer (IKA-Werke GmbH & Co. KG, Germany). Ten-fold serial dilutions of lung homogenates were plated on MH agar (Oxoid SpA), and the number of colony-forming units (CFU) was counted after incubation at 37°C for 24 h.

S. aureus SA7 = assay: MIC broth microdilution; assay type: cell-based, Staphylococcus aureus; conditions: D-BMAP18, strain SA7, MH broth, 37°C 24 h, n = 6
Procedure: as §1

S. aureus SA5 = assay: MIC broth microdilution; assay type: cell-based, Staphylococcus aureus; conditions: D-BMAP18, strain SA5, MH broth, 37°C 24 h, n = 6
Procedure: as §1

[1] = broth microdilution, MH broth, 37°C 24 h
[2] = kills at least 99.9% of inoculum

CC(C)C[C@@H](NC(=O)[C@@H](CCCCN)NC(=O)[C@@H](CCCCN)NC(=O)[C@@H](Cc1ccccc1)NC(=O)[C@@H](CC(C)C)NC(=O)[C@@H](CCCCN)NC(=O)[C@@H](CCCCN)NC(=O)[C@@H](Cc1ccccc1)NC(=O)[C@@H](CCCCN)NC(=O)[C@@H](CCCCN)NC(=O)[C@@H](CCCNC(=N)N)NC(=O)[C@@H](Cc1ccccc1)NC(=O)[C@@H](CCCNC(=N)N)NC(=O)[C@@H](CCCCN)NC(=O)[C@@H](Cc1ccccc1)NC(=O)[C@@H](CCCNC(=N)N)NC(=O)CN)C(=O)N[C@H](CO)C(N)=O [D-BMAP18] (H-G[dR][dF][dK][dR][dF][dR][dK][dK][dF][dK][dK][dL][dF][dK][dK][dL][dS]-NH2)
MIC (S. aureus SA2): >32 µg/mL | MIC (S. aureus SA1): >32 µg/mL | MIC (S. maltophilia SM110; [1]): 4 µg/mL (≈ 1.71 µM) | MBC (S. maltophilia SM110; [2]): 4 µg/mL (≈ 1.71 µM) | MIC (S. maltophilia SM105; [1]): 8 µg/mL (≈ 3.42 µM) | MBC (S. maltophilia SM105; [2]): 8 µg/mL (≈ 3.42 µM) | MIC (S. maltophilia SM136; [1]): 8 µg/mL (≈ 3.42 µM) | MBC (S. maltophilia SM136; [2]): 16 µg/mL (≈ 6.83 µM) | MIC (S. maltophilia SM103; [1]): 4 µg/mL (≈ 1.71 µM) | MBC (S. maltophilia SM103; [2]): 4 µg/mL (≈ 1.71 µM) | MIC (S. maltophilia SM130; [1]): 8 µg/mL (≈ 3.42 µM) | MBC (S. maltophilia SM130; [2]): 16 µg/mL (≈ 6.83 µM) | MIC (S. maltophilia SM106; [1]): 32 µg/mL (≈ 13.7 µM) | MBC (S. maltophilia SM106; [2]): 32 µg/mL (≈ 13.7 µM) | MIC (S. maltophilia SM126; [1]): 16 µg/mL (≈ 6.83 µM) | MBC (S. maltophilia SM126; [2]): 32 µg/mL (≈ 13.7 µM) | MIC (S. maltophilia SM123; [1]): 16 µg/mL (≈ 6.83 µM) | MBC (S. maltophilia SM123; [2]): 16 µg/mL (≈ 6.83 µM) | MIC (S. maltophilia SM139; [1]): 8 µg/mL (≈ 3.42 µM) | MBC (S. maltophilia SM139; [2]): 8 µg/mL (≈ 3.42 µM) | MIC (S. maltophilia SM122; [1]): 16 µg/mL (≈ 6.83 µM) | MBC (S. maltophilia SM122; [2]): 16 µg/mL (≈ 6.83 µM) | MIC (S. maltophilia SM120; [1]): 8 µg/mL (≈ 3.42 µM) | MBC (S. maltophilia SM120; [2]): 16 µg/mL (≈ 6.83 µM) | MIC (S. maltophilia SM143; [1]): 8 µg/mL (≈ 3.42 µM) | MBC (S. maltophilia SM143; [2]): 8 µg/mL (≈ 3.42 µM) | MIC90 (S. maltophilia): 16 µg/mL (≈ 6.83 µM) | macroscopic lung pathology (four-point score) (C57BL/6NCrl mice; 1 mg/kg single intratracheal instillation, day 5 p.e., n = 5/group): No pulmonary damage | macroscopic lung pathology, median score (four-point scoring) (C57BL/6NCrl mice; 2 mg/kg single intratracheal instillation, day 5 p.e., n = 5/group, p < 0.05 vs control): 2.5 | macroscopic lung pathology, median score (four-point scoring) (C57BL/6NCrl mice; 8 mg/kg single intratracheal instillation, day 5 p.e., n = 5/group, p < 0.01 vs control): 3 | change in body weight, first 2 days (C57BL/6NCrl mice; 1, 2, 4, 8 mg/kg intratracheal, first 2 days p.e., regardless of dose, vs unexposed control): significant (p<0.01) decrease | change in body weight (C57BL/6NCrl mice; 1-8 mg/kg intratracheal, over 5 days p.e., also at the lowest dose, dose-dependent): significant reduction in body weight | trend between dose and macroscopic lung damage (P. aeruginosa RP73): not statistically significant | MIC (S. aureus SA7): >32 µg/mL | MIC (S. aureus SA5): >32 µg/mL
